pIC50: −log10 of the molar value. Where two headings read alike, the source gives them in different places.

The term pIC50 denotes −log10 of the IC50, conventionally taken in molar units.

This assay concerns the target T1, rat brain N-type calcium channel subunits (α1B+α2δ+β1b cDNA subunits) (Rattus norvegicus, UniProt Q02294).
T1 construct: expressed in transfected cells; host or cells: HEK 293
In words: N-type calcium channel block, whole cell patch clamp in transfected HEK 293 cells. Type of assay: cell-based. Particulars: holding potential −80 mV to +10 mV. On the procedure: N-type calcium channel blocking activity was assayed in human embryonic kidney cells, HEK 293, stably transfected with the rat brain N-type calcium channel subunits (α1B+α2δ+β1b cDNA subunits). Alternatively, N-type calcium channels (α1B+α2δ+β1b cDNA subunits), L-type channels (α1C+α2δ+β1b cDNA subunits) and P/Q-type channels (α1A+α2δ+β1b cDNA subunits) were transiently expressed in HEK 293 cells. Briefly, cells were cultured in Dulbecco's modified eagle medium (DMEM) supplemented with 10% fetal bovine serum, 200 U/ml penicillin and 0.2 mg/ml streptomycin at 37° C. with 5% CO2. At 85% confluency cells were split with 0.25% trypsin/1 mM EDTA and plated at 10% confluency on glass coverslips. At 12 hours the medium was replaced and the cells transiently transfected using a standard calcium phosphate protocol and the appropriate calcium channel cDNA's. Fresh DMEM was supplied and the cells transferred to 28° C./5% CO2. Cells were incubated for 1 to 2 days prior to whole cell recording.
Whole cell patch clamp experiments were performed using an Axopatch 200B amplifier (Axon Instruments, Burlingame, Calif.) linked to a personal computer equipped with pCLAMP software. The external and internal recording solutions contained, respectively, 5 mM BaCl2, 10 mM MgCl2, 10 mM HEPES, 40 mM TEACl, 10 mM glucose, 87.5 mM CsCl (pH 7.2) and 108 mM CsMS, 4 mM MgCl2, 9 mM EGTA, 9 mM HEPES (pH 7.2). Currents were typically elicited from a holding potential of −80 mV to +10 mV using Clampex software (Axon Instruments). Typically, currents were first elicited with low frequency stimulation (0.067 Hz) and allowed to stabilize prior to application of the compounds. The compounds were then applied during the low frequency pulse trains for two to three minutes to assess tonic block, and subsequently the pulse frequency was increased to 0.2 Hz to assess frequency dependent block. Data were analyzed using Clampfit (Axon Instruments) and SigmaPlot 4.0 (Jandel Scientific).
In general terms: Patch clamp records ionic current or voltage across a cell membrane.

[1] abbreviates: low frequency stimulation 0.067 Hz (tonic block), 5 mM BaCl2, read-out: IC50 @ 0.067 Hz.
Where [2] appears, read: pulse frequency 0.2 Hz (frequency dependent block), 5 mM BaCl2, read-out: IC50 @ 0.2 Hz.

T1 sequence (Q02294 whole entry): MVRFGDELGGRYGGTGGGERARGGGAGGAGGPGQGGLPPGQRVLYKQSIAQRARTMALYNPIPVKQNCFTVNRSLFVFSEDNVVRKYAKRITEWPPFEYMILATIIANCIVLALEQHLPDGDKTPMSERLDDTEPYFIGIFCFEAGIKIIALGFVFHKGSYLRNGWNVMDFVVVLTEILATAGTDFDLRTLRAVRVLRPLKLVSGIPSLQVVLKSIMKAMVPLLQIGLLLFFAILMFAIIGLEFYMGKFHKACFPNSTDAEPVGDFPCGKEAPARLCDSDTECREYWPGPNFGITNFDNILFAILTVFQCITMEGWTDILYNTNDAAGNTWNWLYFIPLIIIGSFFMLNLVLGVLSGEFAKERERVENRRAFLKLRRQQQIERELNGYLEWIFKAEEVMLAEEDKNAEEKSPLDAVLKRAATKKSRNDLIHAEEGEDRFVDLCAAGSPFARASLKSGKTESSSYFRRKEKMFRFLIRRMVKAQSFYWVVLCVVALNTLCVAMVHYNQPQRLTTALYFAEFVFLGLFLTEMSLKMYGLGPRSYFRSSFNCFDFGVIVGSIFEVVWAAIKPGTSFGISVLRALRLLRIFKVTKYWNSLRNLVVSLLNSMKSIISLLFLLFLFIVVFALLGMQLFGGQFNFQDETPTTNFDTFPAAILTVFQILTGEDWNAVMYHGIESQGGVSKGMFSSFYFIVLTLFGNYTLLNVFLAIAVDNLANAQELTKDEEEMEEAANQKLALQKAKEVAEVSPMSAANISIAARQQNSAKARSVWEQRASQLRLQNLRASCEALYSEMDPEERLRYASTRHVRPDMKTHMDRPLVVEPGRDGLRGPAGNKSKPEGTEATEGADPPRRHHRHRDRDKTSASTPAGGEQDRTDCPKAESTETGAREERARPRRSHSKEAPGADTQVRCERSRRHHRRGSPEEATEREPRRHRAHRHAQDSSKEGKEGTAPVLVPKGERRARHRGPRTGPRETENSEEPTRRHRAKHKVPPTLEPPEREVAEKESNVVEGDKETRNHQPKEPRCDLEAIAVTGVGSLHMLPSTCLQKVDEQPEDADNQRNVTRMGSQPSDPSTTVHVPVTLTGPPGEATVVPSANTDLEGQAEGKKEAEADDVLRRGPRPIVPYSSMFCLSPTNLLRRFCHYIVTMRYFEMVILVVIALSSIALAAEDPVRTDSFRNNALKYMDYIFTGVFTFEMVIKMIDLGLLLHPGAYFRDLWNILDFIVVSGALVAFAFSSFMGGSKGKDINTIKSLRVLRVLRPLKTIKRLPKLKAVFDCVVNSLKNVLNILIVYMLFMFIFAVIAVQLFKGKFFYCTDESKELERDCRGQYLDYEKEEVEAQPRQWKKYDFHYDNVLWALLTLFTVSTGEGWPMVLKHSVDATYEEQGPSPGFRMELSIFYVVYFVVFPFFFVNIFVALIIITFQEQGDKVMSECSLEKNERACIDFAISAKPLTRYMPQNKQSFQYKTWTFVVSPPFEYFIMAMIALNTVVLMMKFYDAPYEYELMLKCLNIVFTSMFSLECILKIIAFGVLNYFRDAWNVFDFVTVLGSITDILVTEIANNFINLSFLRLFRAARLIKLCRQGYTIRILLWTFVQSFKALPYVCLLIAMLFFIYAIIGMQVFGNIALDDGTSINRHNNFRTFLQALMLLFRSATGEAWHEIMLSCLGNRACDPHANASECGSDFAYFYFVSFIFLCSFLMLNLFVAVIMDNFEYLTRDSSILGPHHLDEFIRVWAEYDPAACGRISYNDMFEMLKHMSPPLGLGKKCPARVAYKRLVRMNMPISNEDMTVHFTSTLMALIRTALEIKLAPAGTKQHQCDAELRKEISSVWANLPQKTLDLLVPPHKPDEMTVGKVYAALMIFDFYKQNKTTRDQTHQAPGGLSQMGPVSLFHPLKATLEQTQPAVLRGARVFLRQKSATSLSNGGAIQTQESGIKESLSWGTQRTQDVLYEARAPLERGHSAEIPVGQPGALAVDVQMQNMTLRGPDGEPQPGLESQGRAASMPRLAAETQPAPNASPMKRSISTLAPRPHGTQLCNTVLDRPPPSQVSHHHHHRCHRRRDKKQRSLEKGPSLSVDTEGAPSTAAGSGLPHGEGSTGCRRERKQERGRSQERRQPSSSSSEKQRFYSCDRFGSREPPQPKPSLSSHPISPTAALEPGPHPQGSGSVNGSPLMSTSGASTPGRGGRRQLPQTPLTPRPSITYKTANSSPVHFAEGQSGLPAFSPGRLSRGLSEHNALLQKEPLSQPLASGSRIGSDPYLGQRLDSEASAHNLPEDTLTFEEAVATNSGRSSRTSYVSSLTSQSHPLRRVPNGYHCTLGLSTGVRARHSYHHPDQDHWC
T1 sequence (P54290 25-944 partner limits assumed): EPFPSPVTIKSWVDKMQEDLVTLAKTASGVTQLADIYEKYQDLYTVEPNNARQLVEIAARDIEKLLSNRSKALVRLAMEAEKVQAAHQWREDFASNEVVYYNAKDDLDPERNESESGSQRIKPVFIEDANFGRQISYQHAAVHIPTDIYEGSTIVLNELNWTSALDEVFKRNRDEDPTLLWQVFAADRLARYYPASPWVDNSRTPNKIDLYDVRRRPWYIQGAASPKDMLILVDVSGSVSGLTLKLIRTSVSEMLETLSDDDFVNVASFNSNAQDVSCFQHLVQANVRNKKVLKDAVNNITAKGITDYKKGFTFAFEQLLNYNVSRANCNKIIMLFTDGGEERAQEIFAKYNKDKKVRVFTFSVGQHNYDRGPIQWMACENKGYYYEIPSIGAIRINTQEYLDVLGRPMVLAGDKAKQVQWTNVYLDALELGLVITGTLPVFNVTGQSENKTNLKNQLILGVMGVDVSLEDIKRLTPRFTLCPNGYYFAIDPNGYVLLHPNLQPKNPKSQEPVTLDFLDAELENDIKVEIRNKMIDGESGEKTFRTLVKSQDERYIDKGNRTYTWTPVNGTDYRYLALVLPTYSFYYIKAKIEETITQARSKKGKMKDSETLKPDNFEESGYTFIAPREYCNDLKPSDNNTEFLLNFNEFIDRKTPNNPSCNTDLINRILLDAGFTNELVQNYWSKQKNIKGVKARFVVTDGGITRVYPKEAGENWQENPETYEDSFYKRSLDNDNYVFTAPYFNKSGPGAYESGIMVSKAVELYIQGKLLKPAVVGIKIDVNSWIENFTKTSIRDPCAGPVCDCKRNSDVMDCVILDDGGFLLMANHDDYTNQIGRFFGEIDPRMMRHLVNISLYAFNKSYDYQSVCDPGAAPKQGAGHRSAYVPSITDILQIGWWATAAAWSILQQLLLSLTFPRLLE
T1 sequence (P54290 945-1091 partner limits assumed): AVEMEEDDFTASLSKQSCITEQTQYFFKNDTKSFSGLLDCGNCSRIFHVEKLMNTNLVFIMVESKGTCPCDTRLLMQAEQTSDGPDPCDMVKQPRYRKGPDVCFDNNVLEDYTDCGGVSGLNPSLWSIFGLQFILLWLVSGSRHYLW
T1 sequence (P54283 whole entry partner): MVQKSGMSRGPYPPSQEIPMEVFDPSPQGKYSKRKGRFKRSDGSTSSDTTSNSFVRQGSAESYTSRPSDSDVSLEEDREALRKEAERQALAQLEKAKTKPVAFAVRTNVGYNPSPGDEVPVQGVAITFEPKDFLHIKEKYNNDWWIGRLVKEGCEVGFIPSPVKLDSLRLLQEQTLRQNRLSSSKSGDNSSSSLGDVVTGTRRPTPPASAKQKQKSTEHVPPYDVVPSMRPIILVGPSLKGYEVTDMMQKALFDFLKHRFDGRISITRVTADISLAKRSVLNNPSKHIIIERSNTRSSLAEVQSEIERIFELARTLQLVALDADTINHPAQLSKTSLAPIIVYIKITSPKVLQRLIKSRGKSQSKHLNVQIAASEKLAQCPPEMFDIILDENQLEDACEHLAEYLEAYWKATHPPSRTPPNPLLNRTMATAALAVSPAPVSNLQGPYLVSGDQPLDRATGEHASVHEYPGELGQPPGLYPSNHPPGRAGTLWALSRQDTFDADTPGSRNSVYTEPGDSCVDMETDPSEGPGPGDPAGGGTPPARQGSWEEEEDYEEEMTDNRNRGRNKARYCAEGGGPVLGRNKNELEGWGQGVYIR

Turning to `CC(C)(C)N1CCN(C(=O)C2CCN(C(=O)COC(c3ccc(F)cc3)c3ccc(F)cc3)CC2)CC1` [Compound 82, 2-(bis(4-fluorophenyl)methoxy)-1-(4-(4-tert-butylpiperazine-1-carbonyl)piperidin-1-yl)ethanone], the pIC50 is 5.59 under setting [1] and 4.81 under setting [2].
For `Cc1ccccc1C(CC(=O)N1CCC(C(=O)N2CCN(C(C)(C)C)CC2)CC1)c1ccccc1C` [Compound 79, 1-(4-(4-tert-butylpiperazine-1-carbonyl)piperidin-1-yl)-3,3-di-o-tolylpropan-1-one], in that order: 5.83 and 6.03.
For `CN1CCN(C(=O)C2(c3ccccc3)CCN(C(=O)NC(c3ccccc3)c3ccccc3)CC2)CC1` [Compound 38, N-benzhydryl-4-(4-methylpiperazine-1-carbonyl)-4-phenylpiperidine-1-carboxamide], in that order: less than 5.64 and 5.85.
The corresponding values for `CN1CCN(C(=O)C2CCN(C(=O)CNC(c3ccccc3)c3ccccc3)CC2)CC1` [Compound 7, 2-(benzhydrylamino)-1-(4-(4-methylpiperazine-1-carbonyl)piperidin-1-yl)ethanone] are 5.32 and 5.62.
For `COc1ccccc1C(CC(=O)N1CCC(C(c2ccccc2)N2CC(C)NC(C)C2)CC1)c1ccccc1OC` (stereo not shown) [Compound 83, 1-(4-((3,5-dimethylpiperazin-1-yl)(phenyl)methyl)piperidin-1-yl)-3,3-bis(2-methoxyphenyl)propan-1-one], the negative-log IC50 (pIC50) by setting is: under setting [1], 5.52; under setting [2], 5.80.
The corresponding values for `CN1CCN(C(=O)C2(c3ccccc3)CCN(C(=O)CNC(c3ccccc3)c3ccccc3)CC2)CC1` [Compound 36, 2-(benzhydrylamino)-1-(4-(4-methylpiperazine-1-carbonyl)-4-phenylpiperidin-1-yl)ethanone] are less than 4.67 and less than 4.90.
The corresponding values for `O=C(NC(c1ccccc1)c1ccccc1)N1CCC(CN2CCCCC2)CC1` [Compound 41, N-benzhydryl-4-(piperidin-1-ylmethyl)piperidine-1-carboxamide] are 5.28 and 5.46.
For `CC1CN(CC2CCN(C(=O)C[S+]([O-])C(c3ccccc3)c3ccccc3)CC2)CC(C)N1` (stereo not shown) [Compound 19, 2-(benzhydrylsulfinyl)-1-(4-((3,5-dimethylpiperazin-1-yl)methyl)piperidin-1-yl)ethanone], in that order: 5.43 and 5.62.
Consider `CC1CN(C(=O)C2CCN(C(=O)CNC(c3ccccc3)c3ccccc3)CC2)CC(C)N1` (stereo not shown) [Compound 20, 2-(benzhydrylamino)-1-(4-(3,5-dimethylpiperazine-1-carbonyl)piperidin-1-yl)ethanone], for which the pIC50 is, setting by setting: under setting [1], 5.06; under setting [2], 5.52.
The corresponding values for `Cc1ccccc1C(CC(=O)N1CCC(CN2CC(C)NC(C)C2)CC1)c1ccccc1C` (stereo not shown) [Compound 15, 1-(4-((3,5-dimethylpiperazin-1-yl)methyl)piperidin-1-yl)-3,3-di-o-tolylpropan-1-one] are 5.73 and 5.79.
For `CN1CCN(C(=O)C2CCN(C(=O)CC(c3ccccc3)c3ccccc3)CC2)CC1` [Compound 12, 1-(4-(4-methylpiperazine-1-carbonyl)piperidin-1-yl)-3,3-diphenylpropan-1-one], in that order: 5.90 and 6.12.
Consider `Cc1ccccc1C(CC(=O)N1CCC(CN2CCCCC2)CC1)c1ccccc1C` [Compound 42, 1-(4-(piperidin-1-ylmethyl)piperidin-1-yl)-3,3-di-o-tolylpropan-1-one], for which the pIC50 is 5.18 under setting [1] and 5.61 under setting [2].
The corresponding values for `Cc1ccccc1C(CC(=O)N1CCC(C(c2ccccc2)N2CC(C)NC(C)C2)CC1)c1ccccc1C` (stereo not shown) [Compound 57, 1-(4-((3,5-dimethylpiperazin-1-yl)(phenyl)methyl)piperidin-1-yl)-3,3-di-o-tolylpropan-1-one] are 6.03 and 6.36.
For `CC1CN(CC2(c3ccccc3)CCN(C(=O)CC(c3ccccc3)c3ccccc3)CC2)CC(C)N1` (stereo not shown) [Compound 30, 1-(4-((3,5-dimethylpiperazin-1-yl)methyl)-4-phenylpiperidin-1-yl)-3,3-diphenylpropan-1-one], in that order: 6.31 and 6.49.
As to `CC1CN(C(c2ccccc2)C2CCN(C(=O)CC(c3ccccc3)c3ccccc3)CC2)CC(C)N1` (stereo not shown) [Compound 55, 1-(4-((3,5-dimethylpiperazin-1-yl)(phenyl)methyl)piperidin-1-yl)-3,3-diphenylpropan-1-one], the pIC50 runs as follows: under setting [1], 6.06; under setting [2], 6.38.
For `CC(C)(C)N1CCN(CC2CCN(C(=O)CCCCC(c3ccccc3)c3ccccc3)CC2)CC1` [Compound 74, 1-(4-((4-tert-butylpiperazin-1-yl)methyl)piperidin-1-yl)-6,6-diphenylhexan-1-one], in that order: 6.38 and 6.54.
For `O=C(CC(c1ccccc1)c1ccccc1)N1CCC(C(c2ccccc2)N2CCCCC2)CC1` (stereo not shown) [Compound 50, 3,3-diphenyl-1-(4-(phenyl(piperidin-1-yl)methyl)piperidin-1-yl)propan-1-one], in that order: 5.64 and 5.82.
`Cc1ccccc1C(CC(=O)N1CCC(CN2CCCCC2)(c2ccccc2)CC1)c1ccccc1C` [Compound 46, 1-(4-phenyl-4-(piperidin-1-ylmethyl)piperidin-1-yl)-3,3-di-o-tolylpropan-1-one]: the pIC50 reads like this: under setting [1], 6.49; under setting [2], 6.60.
Turning to `CC1CN(CC2CCN(C(=O)COC(c3ccccc3)c3ccccc3)CC2)CC(C)N1` (stereo not shown) [Compound 18, 2-(benzhydryloxy)-1-(4-((3,5-dimethylpiperazin-1-yl)methyl)piperidin-1-yl)ethanone], the pIC50 is 5.73 under setting [1] and 5.93 under setting [2].
Regarding `CC1CN(C(=O)C2(c3ccccc3)CCN(C(=O)CC(c3ccccc3)c3ccccc3)CC2)CC(C)N1` (stereo not shown) [Compound 26, 1-(4-(3,5-dimethylpiperazine-1-carbonyl)-4-phenylpiperidin-1-yl)-3,3-diphenylpropan-1-one], the pIC50 by setting is: under setting [1], 5.88; under setting [2], 6.07.
On to `Cc1ccccc1C(CC(=O)N1CCC(CN2CC(C)NC(C)C2)(c2ccccc2)CC1)c1ccccc1C` (stereo not shown) [Compound 31, 1-(4-((3,5-dimethylpiperazin-1-yl)methyl)-4-phenylpiperidin-1-yl)-3,3-di-o-tolylpropan-1-one], for which the pIC50 was 6.21 under setting [1] and 6.51 under setting [2].
The corresponding values for `O=C(C[S+]([O-])C(c1ccccc1)c1ccccc1)N1CCC(CN2CCCCC2)(c2ccccc2)CC1` (stereo not shown) [Compound 48, 2-(benzhydrylsulfinyl)-1-(4-phenyl-4-(piperidin-1-ylmethyl)piperidin-1-yl)ethanone] are 5.90 and 6.03.
For `Cc1ccccc1C(CC(=O)N1CCC(C(=O)N2CCN(C)CC2)(c2ccccc2)CC1)c1ccccc1C` [Compound 37, 1-(4-(4-methylpiperazine-1-carbonyl)-4-phenylpiperidin-1-yl)-3,3-di-o-tolylpropan-1-one], in that order: 6.42 and 6.54.

(Values after patent US20100168103A1, “DIARYL PIPERIDINE COMPOUNDS AS CALCIUM CHANNEL BLOCKERS” (NEUROMED PHARMACEUTICALS LTD., priority 2006, published 2010).)
